These results are taken from patent US8754060B2, “Methods and compositions for inhibition of axonal degeneration by modulation of the DLK/JNK pathway” (Washington University, priority 2008, dated 2014).

For one data set, the system named is DRG axons. Kind of data set: DRG axotomy model: axon degeneration 24 hours post-axotomy (phase contrast, degeneration index). It counts as cell-based, mouse. From the text: In these experiments, the inventors cultured embryonic mouse dorsal root ganglion cells (DRGs) for 14-16 days to allow their axons to radiate from the central core of cell bodies before severing the axons with a micro-scalpel. […] Axotomized DLK mutant axons have a 65%+/−3.2% (se) decrease in degeneration index (DI) relative to controls (p<0.0001, n=8 individual axotomized DRG cultures per condition, t-test). Vincristine treatment induces 59%+/−6.3% (se) less DI in DLK mutants relative to controls (p<0.002, n=7 DRG cultures per condition, t-test). […] The initially smooth and continuous axonal processes become rough and irregular axon fragments. The extent of axon breakdown was quantified by measuring the fraction of axonal area occupied by fragmented axons (degeneration index, DI). […] Because non-neuronal cells are eliminated in this DRG culture system, we concluded that DLK must be required within neurons themselves for the normal axon degenerative response.
In these experiments, to determine whether the axon degeneration pathway requires either JNK or p38, we used pharmacological inhibitors of each MAP kinase in the DRG axotomy model. Wild-type DRG cultures were treated with the JNK inhibitor SP600215 and the p38 inhibitor SB203580 starting from 24 hours before axotomy and for the remainder of the experiment.
Unless noted, vehicle and inhibitors were added 24 hours pre-axotomy and left on for the duration of the experiment. FIG. 3A: Vehicle (DMSO). FIG. 3B: SB203580 (P38 inhibitor). FIG. 3C: SP600215 (JNK inhibitor). FIG. 3D: SP600215 added 24 hr pre-axotomy, and removed just before axotomy. FIG. 3E: SF600215 added concurrently with axotomy. FIG. 3F: SP600215 added 3 hours post-axotomy. FIG. 3G: SP600215 added concurrent with axotomy and removed 3 hours post-axotomy.

The subject of another data set is cultured DRG neurons. The note with it: morphologically similar to that induced by axotomy (Wang et al. 2000; FIG. 2); cited from earlier work.

As to `O=C1c2ccccc2-c2n[nH]c3cccc1c23` [SP600215, Anthra[1,9-cd]pyrazol-6(2H)-one; 1,9-pyrazoloanthrone], the “degeneration of DRG axons following axotomy” value in the data set on DRG axons (added 3 hours post-axotomy and continued for the rest of the experiment (FIG. 3F)) is given as “did not decrease axon degeneration”; in the data set on DRG axons (added 24 hr pre-axotomy, and removed just before axotomy (FIG. 3D)), “not protective”; with DRG axons (added concurrent with axotomy and removed 3 hours post-axotomy (FIG. 3G), vs vehicle (DMSO)), “significantly less degenerated than A”; in the data set with DRG axons (added concurrently with axotomy (FIG. 3E)), “protective”; in the data set on DRG axons (inhibitor added 24 hours pre-axotomy and left on for the duration of the experiment, 24 hours post-axotomy, vs vehicle (DMSO) (FIG. 3B, 3C)) it was “significantly less degenerated than A”.
As for `CC[C@]1(O)C[C@H]2CN(CCc3c([nH]c4ccccc34)[C@@](C(=O)OC)(c3cc4c(cc3OC)N(C=O)[C@H]3[C@@](O)(C(=O)OC)[C@H](OC(C)=O)[C@]5(CC)C=CCN6CC[C@]43[C@@H]65)C2)C1` [vincristine], the “axon degeneration triggered by the drug” value in the data set on cultured DRG neurons is listed as “triggers an axon degeneration”.
